# Where “and” joins values, the source holds several entries; their conditions need not be identical. Equal entries are not always repeated. Where two headings read alike, the source gives them in different places.
# What was measured:
# VCaP cells [1] = experiment: Cell viability assay (CellTiter-Glo, 5 days); type: cell-based, human
# Experimental: (§1) Cells were seeded in 96-well plates and incubated at 37°C with 5% CO2 overnight. A series of compound dilutions were added into the cells. After 5 days incubation, cell proliferation was tested using the CellTiter-Glo assay (Promega) according to the manufacturer’s protocol. Luminescence was measured using the Infinite M1000 Pro plate reader (Tecan). Data analysis was conducted using GraphPad Prism software.
# CDK12 and CDK13 = settings: VCaP cells
# Experimental: After treatment of varying conditions, cell lysates were prepared using RIPA buffer (ThermoFisher Scientific) supplemented with cOmplete protease inhibitor cocktail tablets (Sigma-Aldrich). The Pierce BCA Protein Assay Kit ([…]) was used to determine the protein concentrations. Proteins with an equal amount from each sample were loaded on NuPAGE 3–8% Tris-Acetate or 4–12% Bis-Tris protein gels (ThermoFisher Scientific) and subsequently transferred to membranes, which were blocked using 5% nonfat milk. Following blocking at room temperature for 1 h, the membrane was further incubated with varying primary antibodies at 4°C overnight. HRP-conjugated secondary antibodies were used for detection, and membrane imaging was conducted using an Odyssey Fc Imager (LI-COR Biosciences).
# MCF7 = experiment: Cell viability assay (CellTiter-Glo, 5 days); type: cell-based; settings: Homo sapiens, 120 h; MCF7, 5 days of treatment, Figure 1F
# Experimental: as §1
# LAPC4 = experiment: Cell viability assay (CellTiter-Glo, 5 days); type: cell-based; settings: Homo sapiens, 120 h; LAPC4, 5 days of treatment, Figure 1F
# Experimental: as §1
# PrEC = experiment: Cell viability assay (CellTiter-Glo, 5 days); type: cell-based; settings: Homo sapiens, 120 h, 5 days of treatment, Figure 1F
# Experimental: as §1
# BPH-1 = experiment: Cell viability assay (CellTiter-Glo, 5 days); type: cell-based; settings: Homo sapiens, 120 h; BPH-1, 5 days of treatment, Figure 1F
# Experimental: as §1
# 22RV1 = experiment: Cell viability assay (CellTiter-Glo, 5 days); type: cell-based; settings: Homo sapiens, 120 h; 22RV1, 5 days of treatment, Figure 1F
# Experimental: as §1
# PC3 = experiment: Cell viability assay (CellTiter-Glo, 5 days); type: cell-based; settings: Homo sapiens, PC-3, 120 h; PC3, 5 days of treatment, Figure 1F
# Experimental: as §1
# MCF12A = experiment: Cell viability assay (CellTiter-Glo, 5 days); type: cell-based; settings: Homo sapiens, MCF-12A, 120 h, 5 days of treatment, Figure 1F
# Experimental: as §1
# PNT2 = experiment: Cell viability assay (CellTiter-Glo, 5 days); type: cell-based; settings: Homo sapiens, 120 h; PNT2, 5 days of treatment, Figure 1F
# Experimental: as §1
# DU145 = experiment: Cell viability assay (CellTiter-Glo, 5 days); type: cell-based; settings: Homo sapiens, DU-145, 120 h; DU145, 5 days of treatment, Figure 1F
# Experimental: as §1
# MDA-MB-468 = experiment: Cell viability assay (CellTiter-Glo, 5 days); type: cell-based; settings: Homo sapiens, 120 h; MDA-MB-468, 5 days of treatment, Figure 1F
# Experimental: as §1
# MFM223 = experiment: Cell viability assay (CellTiter-Glo, 5 days); type: cell-based; settings: Homo sapiens, MFM-223, 120 h; MFM223, 5 days of treatment, Figure 1F
# Experimental: as §1
# RWPE1 = experiment: Cell viability assay (CellTiter-Glo, 5 days); type: cell-based; settings: Homo sapiens, RWPE-1, 120 h; RWPE1, 5 days of treatment, Figure 1F
# Experimental: as §1
# SK-BR-3 = experiment: Cell viability assay (CellTiter-Glo, 5 days); type: cell-based; settings: Homo sapiens, 120 h; SK-BR-3, 5 days of treatment, Figure 1F
# Experimental: as §1
# MCF10A = experiment: Cell viability assay (CellTiter-Glo, 5 days); type: cell-based; settings: Homo sapiens, MCF-10A, 120 h, 5 days of treatment, Figure 1F
# Experimental: as §1
# WPMY-1 = experiment: Cell viability assay (CellTiter-Glo, 5 days); type: cell-based; settings: Homo sapiens, 120 h; WPMY-1, 5 days of treatment, Figure 1F
# Experimental: as §1
# CWR22RV1 = experiment: Cell viability assay (CellTiter-Glo, 5 days); type: cell-based; settings: Homo sapiens, 120 h; CWR22RV1, 5 days of treatment, Figure 1F
# Experimental: as §1
# VCaP cells [2] = experiment: Comet assay; type: cell-based, human; settings: 100 nM, 12 h
# Experimental: VCaP cells were seeded in 6-well plates one day prior to treatment. […] After 12 h incubation, the cells were trypsinized and resuspended at a concentration of 1 × 10^5 cells/mL in ice-cold PBS. The OxiSelect Comet Assay Kit (Cell Biolabs, STA-351) was used to assess DNA damage. Following the manufacturer’s protocol, cells were combined with pre-heated comet agarose at a 1:10 ratio, mixed thoroughly, and then transferred onto slides. The slides were incubated horizontally in the dark at 4°C for 20 min. Afterward, they were immersed in pre-chilled lysis buffer for 40 min at 4°C in the dark, followed by a 30-min incubation in pre-chilled alkaline solution at 4°C in the dark. Electrophoresis was then performed using alkaline solution at 30 V for 20 min. After electrophoresis, the slides were rinsed three times with pre-chilled deionized water, following with 70% ethanol for 5 min and completely dried at 37°C for 30 min. Subsequently, 100 μL of diluted Vista Green DNA dye was applied to each well. After 15 min incubation at room temperature, the comets were observed using a fluorescence microscope and quantified using ImageJ. The quantification figure was generated using GraphPad Prism software.
# [3] = system: castrated VCaP xenograft (VCaP-CRPC); experiment: VCaP castration-resistant prostate cancer xenograft efficacy; type: in vivo, mouse; settings: castrated VCaP xenograft, 31 days; YJ1206 p.o. 100 mg/kg 3x/week, uprosertib p.o. 15 mg/kg 5x/week
# Experimental: (§2) Six-week-old male CB17SCID mice obtained from Charles River (Stock # 236), were used to establish subcutaneous tumors on both dorsal flanks. Tumor dimensions were measured biweekly using digital calipers, applying the formula (π/6) (L × W^2), where L and W represent tumor length and width, respectively. At the study conclusion, mice were euthanized, and tumors were excised and weighed. The University of Michigan Institutional Animal Care and Use Committee (IACUC) approved all in vivo studies.
# (§3) For the VCaP castration-resistant tumor model, 3×10^6 VCaP cells were subcutaneously injected into both dorsal flanks of mice using a serum-free medium mixed with 50% Matrigel (BD Biosciences). Upon tumors reaching palpable size (∼200 mm^3), animals underwent castration. When tumors regrew to their pre-castration size, mice were randomized for treatment with 30 mg/kg YJ9069 or vehicle via intravenous injection or 100 mg/kg YJ1206 or vehicle, […]
# [4] = system: castrated VCaP and 22Rv1 CDX models; experiment: Castrated VCaP and 22Rv1 CDX models, combination efficacy; type: in vivo, mouse; settings: YJ1206 p.o. 100 mg/kg 3x/week, uprosertib p.o. 15 mg/kg 5x/week
# Experimental: as §2
# as §3, with “vehicle, with or without 15 mg/kg uprosertib by oral gavage.” for “vehicle,”
# For the 22Rv1 castration-resistant tumor model, mice underwent castration and then 12 days of recovery. Subsequently, 1 × 10^6 22Rv1 cells were subcutaneously injected into both dorsal flanks using a serum-free medium with 50% Matrigel (BD Biosciences). […]
# PC310 PDX = experiment: PC310 patient-derived xenograft efficacy; type: in vivo, mouse; settings: YJ1206 p.o. 100 mg/kg 3x/week, uprosertib p.o. 15 mg/kg 5x/week
# Experimental: as §2
# WA74 PDX model was developed at the University of Michigan during collection of a rapid autopsy case as part of the Michigan Legacy Tissue Program (MLTP). PC310 PDX model was obtained from Erasmus Medical Center, Rotterdam, the Netherlands. Both PDX lines were propagated in male CB17SCID mice by surgically implanting 2 mm^3 tumor fragments, coated with 100% Matrigel, into both flanks of mice. When tumors reached approximately 200 mm^3, mice were randomized into treatment groups. These groups received either 30 mg/kg YJ9069 via intravenous injection or 100 mg/kg YJ1206 by oral gavage, both administered three times per week, with or without 15 mg/kg uprosertib by oral gavage five days per week for 3–4 weeks. In accordance with IACUC guidelines, the maximum tumor size was limited to 2.0 cm in any dimension, and mice were euthanized if xenografts reached this endpoint.
# [5] = Pharmacokinetic profile in Sprague Dawley rats; type: in vivo, rat; settings: SD rats
# [6] = VCaP cell viability, linker optimization, Figure S4B, read-out: VCaP IC50
structure (smiles),measurement,setting,value
O=C1CCC(N2C(=O)c3ccc(-c4cccc(C(=O)N5CCN(c6ccc(N(C(=O)NCc7ccccc7)C7CCC(Nc8ncc9ccccc9n8)CC7)cc6)CC5)c4)cc3C2=O)C(=O)N1 (stereo not shown) [YJ1130],IC50,VCaP cells [1]; [6],126 nM
same,CDK12/13 degradation (immunoblot),CDK12 and CDK13,significantly decreased CDK12/13 degradation and cell viability
"O=C1CCC(N2C(=O)c3ccccc3C2=O)C(=O)N1 (stereo not shown) [thalidomide, reference compound]",CDK12/13 degradation (immunoblot),CDK12 and CDK13,did not affect target protein levels
O=C(NCc1ccccc1)N(c1ccc(N2CCNCC2)cc1)[C@H]1CC[C@H](Nc2ncc3ccccc3n2)CC1 [YJ9068],IC50,"VCaP cells [1]; VCaP cells, 5 days, Figure S1E, read-out: IC50",1080 nM
same,CDK12/13 degradation (immunoblot),CDK12 and CDK13,did not affect target protein levels
"CN(C)C/C=C/C(=O)Nc1ccc(C(=O)N2CCC[C@@H](Nc3ncc(Cl)c(-c4c[nH]c5ccccc45)n3)C2)cc1 [THZ531, reference compound]",IC50,"VCaP cells [1]; Homo sapiens, VCaP, 120 h, VCaP, 5 days of treatment, Figure 1F, read-out: IC50",33.5 nM
same,IC50,MCF7,356 nM
same,IC50,LAPC4,6.38 nM
same,IC50,PrEC,335 nM
same,IC50,BPH-1,356 nM
same,IC50,22RV1,85.7 nM
same,IC50,PC3,120 nM
same,IC50,MCF12A,310 nM
same,IC50,PNT2,1530 nM
same,IC50,DU145,230 nM
same,IC50,MDA-MB-468,158 nM
same,IC50,MFM223,33.3 nM
same,IC50,RWPE1,404 nM
same,IC50,SK-BR-3,64.8 nM
same,IC50,MCF10A,396 nM
same,IC50,WPMY-1,311 nM
same,IC50,CWR22RV1,69.7 nM
same,DNA damage (tail moment),VCaP cells [2],significant increase in the tail moment
"Cn1ncc(Cl)c1-c1cc(C(=O)N[C@H](CN)Cc2ccc(F)c(F)c2)oc1Cl [uprosertib, reference compound]","progressive disease (PD), waterfall plot (RECIST)",[3],100%
same,anti-tumor efficacy,[4],moderate anti-tumor efficacy
same,"progressive disease (PD), waterfall plot (RECIST)",PC310 PDX,100%
same,tumor growth inhibition,PC310 PDX,only moderate or mild tumor inhibition
O=C1CCC(N2C(=O)c3ccc(N4CCC(N5CCN(c6ccc(N(C(=O)NCc7ccccc7)C7CCC(Nc8ncc9ccccc9n8)CC7)cc6)CC5)CC4)cc3C2=O)C(=O)N1 (stereo not shown) [YJ1105],IC50,VCaP cells [1]; [6],15.1 nM and < 20 nM
same,AUC(0-t),[5]; i.v. 2.5 mg/kg,8039.69 ng·h/mL
same,CL,[5]; i.v. 2.5 mg/kg,4.8027 mL/min/kg
same,Cmax,[5]; i.v. 2.5 mg/kg,1580 nM
same,T1/2,[5]; i.v. 2.5 mg/kg,7.05 h
same,Tmax,[5]; i.v. 2.5 mg/kg,0.08 h
same,AUC(0-),[5]; oral 10 mg/kg,9805.4 ng·h/mL
same,AUC(0-t),[5]; oral 10 mg/kg,8567.43 ng·h/mL
same,Cmax,[5]; oral 10 mg/kg,715 nM
same,T1/2,[5]; oral 10 mg/kg,7.2 h
same,Tmax,[5]; oral 10 mg/kg,6 h
same,F(%) (bioavailability by oral gavage),[5]; oral 10 mg/kg vs i.v. 2.5 mg/kg,26.64%
same,CDK12/13 degradation (immunoblot),CDK12 and CDK13,potent degradation effects

# — article PMC11513842, “Development of an orally bioavailable CDK12/13 degrader and induction of synthetic lethality with AKT pathway inhibition” (Cell Reports Medicine, 2024)
